# pIC50: −log10 of the molar value. Like-named read-outs stand apart in the source and are kept apart here.
# Key:
# IMP-1 = IMP-1 (Serratia marcescens, UniProt P52699); assay: biochemical; format: biochemical; conditions: fluorescence assay, CCF2-FA substrate, 2 pM enzyme, 2 hours at 25° C.; read-out: IMP-1 IC50
# Procedure, shortened: (§1)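 Inhibitor was mixed with the metallo-β-lactamase and CCF2-FA. After 2 hours at 25° C, fluorescence of the coumarin–fluorescein cephalosporin substrate was read. IC50 was calculated with a 4-parameter fit.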
# NDM-1 = NDM-1 (Klebsiella pneumoniae, UniProt C7C422); assay: biochemical; format: biochemical; conditions: fluorescence assay, CCF2-FA substrate, 1 pM enzyme, 2 hours at 25° C.; read-out: NDM-1 IC50
# Procedure, shortened: as §1
# VIM-1 = VIM-1 (Pseudomonas aeruginosa (strain ATCC 15692 / DSM 22644 / CIP 104116 / JCM 14847 / LMG 12228 / 1C / PRS 101 / PAO1), UniProt A0A0F7KYQ8); assay: biochemical; conditions: CCF2-FA substrate, 30 pM enzyme, 2 hours at 25° C.
# Procedure, shortened: as §1
# [1] = test system: Escherichia coli expressing NDM-1 (CLB30005, CLB30016); format: cell-based; conditions: with imipenem 1 μg/ml; for Escherichia coli MITC95: NDM-1 strain
# Procedure, shortened: (§2)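 Colonies grown overnight on blood agar at 35° C were suspended in saline, diluted 1:100 into 1.1×CAMHB and dispensed. Imipenem was added to 1 μg/ml, then test compound. After 22 hours to 24 hours at 35° C, absorbance was recorded.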
# [2] = test system: Klebsiella pneumoniae expressing VIM-1 (IHMA599644); format: cell-based; conditions: for Klebsiella pneumoniae MITC95: VIM-1 strain IHMA599644, with imipenem 1 μg/ml; for Klebsiella pneumoniae expressing VIM-1 (IHMA599644) MITC95: with imipenem 1 μg/ml
# Procedure, shortened: as §2
# [3] = test system: Serratia marcescens expressing IMP-1 (CL5741); format: cell-based; conditions: for Serratia marcescens MITC95: IMP-1 strain CL5741, with imipenem 1 μg/ml; for Serratia marcescens expressing IMP-1 (CL5741) MITC95: with imipenem 1 μg/ml
# Procedure, shortened: as §2
# [4] = test system: Pseudomonas aeruginosa efflux+ (MB9798), IMP-1; format: cell-based; set-up: Concentration of metallo-β-lactamase inhibitor which restores susceptibility of efflux + (MB9798) strain to imipenem: unit not given here; conditions: C, D serine β-lactamase inhibitor closely related to relebactam; for P. aeruginosa expressing IMP-1, efflux + (MB9798) MITC95: concentration restoring susceptibility to imipenem at 2 μg/mL in the presence of a class A; for Concentration of metallo-β-lactamase inhibitor which restores susceptibility of efflux + (MB9798) strain to imipenem: imipenem at 2 μg/mL, in the presence of a class A
# Procedure, shortened: (§3)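 P. aeruginosa PAO1-derived IMP-1 strains, efflux+ MB9798 and efflux− MB9799, tested by standard microbroth MIC with imipenem and/or ceftazidime fixed, usually at CLSI breakpoint, plus fixed class A/C β-lactamase inhibitor against AmpC. Inhibitor titrated; concentration restoring susceptibility recorded; MB9798/MB9799 fold difference indicates efflux.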
# [5] = test system: Pseudomonas aeruginosa efflux− (MB9799), IMP-1; format: cell-based; conditions: C, D serine β-lactamase inhibitor closely related to relebactam; for P. aeruginosa expressing IMP-1, efflux − (MB9799) MITC95: concentration restoring susceptibility to imipenem at 2 μg/mL in the presence of a class A; for Concentration of metallo-β-lactamase inhibitor which restores susceptibility of efflux − (MB9799) strain to imipenem: imipenem at 2 μg/mL, in the presence of a class A
# Procedure, shortened: as §3
# [6] = test system: Pseudomonas aeruginosa MB9798 vs MB9799
# Procedure, shortened: as §3
# [7] = fluorescence assay, read-out: VIM-1 IC50
# [8] = ratio MITC95 PA_9798/MITC95 PA_9799
# [9] = 95% inhibition of bacterial growth
# [10] = fold difference between efflux+ (MB9798) and efflux− (MB9799) strains, imipenem at 2 μg/mL
# IMP-1, sequence (P52699 whole entry, looked up, species assumed): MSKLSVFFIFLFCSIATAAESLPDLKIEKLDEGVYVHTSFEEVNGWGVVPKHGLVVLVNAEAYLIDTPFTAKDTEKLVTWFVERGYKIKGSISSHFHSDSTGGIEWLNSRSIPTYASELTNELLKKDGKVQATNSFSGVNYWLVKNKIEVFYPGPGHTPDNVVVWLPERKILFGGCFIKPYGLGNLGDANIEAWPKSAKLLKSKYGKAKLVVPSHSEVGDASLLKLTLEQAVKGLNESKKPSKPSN
# NDM-1, sequence (C7C422 whole entry, looked up, species assumed): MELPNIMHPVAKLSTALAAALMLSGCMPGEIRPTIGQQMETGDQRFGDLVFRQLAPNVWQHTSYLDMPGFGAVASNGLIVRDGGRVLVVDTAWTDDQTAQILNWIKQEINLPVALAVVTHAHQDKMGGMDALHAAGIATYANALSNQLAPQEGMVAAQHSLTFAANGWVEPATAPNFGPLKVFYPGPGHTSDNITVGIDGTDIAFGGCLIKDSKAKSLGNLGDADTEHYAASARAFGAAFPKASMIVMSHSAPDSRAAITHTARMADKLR
Compound,pIC50 (IMP-1),pIC50 (NDM-1),pIC50 (VIM-1; [7]),Escherichia coli MITC95 ([1]; 95% inhibition of growth) [µM],Klebsiella pneumoniae MITC95 ([2]; 95% inhibition of growth) [µM],Serratia marcescens MITC95 ([3]; 95% inhibition of growth) [µM],"P. aeruginosa expressing IMP-1, efflux + (MB9798) MITC95 [4] [µM]","P. aeruginosa expressing IMP-1, efflux − (MB9799) MITC95 [5] [µM]","Efflux ratio [6, 8]","Escherichia coli expressing NDM-1 (CLB30016) MITC95 [1, 9] [µM]","Klebsiella pneumoniae expressing VIM-1 (IHMA599644) MITC95 [2, 9] [µM]","Serratia marcescens expressing IMP-1 (CL5741) MITC95 [3, 9] [µM]","Escherichia coli MITC95 [1, 9] [µM]","Klebsiella pneumoniae MITC95 [2, 9] [µM]","Serratia marcescens MITC95 [3, 9] [µM]",Concentration of metallo-β-lactamase inhibitor which restores susceptibility of efflux + (MB9798) strain to imipenem [4],Concentration of metallo-β-lactamase inhibitor which restores susceptibility of efflux − (MB9799) strain to imipenem [5],"Efflux ratio [6, 10]","pIC50 (VIM-1; VIM-1 IC50, fluorescence assay)"
"NC[C@H](N)CNS(=O)(=O)c1ccc(-c2cnc(N)s2)c(-c2nn[nH]n2)c1S(N)(=O)=O [Example 372, (S)-4-(2-aminothiazol-5-yl)-N1-(2,3-diaminopropyl)-3-(2H-tetrazol-5-yl)benzene-1,2-disulfonamide]",8.89,9.24,9.04,1.563,3.125,1.563,1.563,0.7813,2.00,–,–,–,–,–,–,–,–,–,–
"Cl.Cn1c(N)nc2c(-c3ccc(S(=O)(=O)NCCN)c(S(N)(=O)=O)c3-c3nn[nH]n3)cccc21 [Example 10, 4-(2-amino-1-methyl-1H-benzo[d]imidazol-4-yl)-N1-(2-aminoethyl)-3-(2H-tetrazol-5-yl)benzene-1,2-disulfonamide hydrochloride]",9.63,10.05,9.75,–,–,–,0.7656,0.7656,1.00,0.1875,1.531,0.6406,–,–,–,–,–,–,–
"Cl.Cl.NCCCNS(=O)(=O)c1ccc(-c2ccc(N)nc2)c(-c2nn[nH]n2)c1S(N)(=O)=O [Example 496, N1-(3-aminopropyl)-4-(6-aminopyridin-3-yl)-3-(2H-tetrazol-5-yl)benzene-1,2-disulfonamide hydrogen chloride]",9.24,9.70,9.76,–,–,–,–,–,–,–,–,–,0.09766,1.563,0.7813,0.7813,0.7813,1.00,–
"Nc1nc2c(-c3ccc(S(=O)(=O)NC4CCNCC4)c(S(N)(=O)=O)c3-c3nn[nH]n3)cccc2[nH]1 [Example 260, 4-(2-amino-1H-benzo[d]imidazol-4-yl)-N1-(piperidin-4-yl)-3-(1H-tetrazol-5-yl)benzene-1,2-disulfonamide]",9.19,10.37,9.82,0.7813,1.563,1.563,0.7813,0.7813,1.00,–,–,–,–,–,–,–,–,–,–
"C[C@H](CN)NS(=O)(=O)c1ccc(-c2cccc(N)n2)c(-c2nn[nH]n2)c1S(N)(=O)=O [Example 318, (R)—N1-(1-aminopropan-2-yl)-4-(6-aminopyridin-2-yl)-3-(2H-tetrazol-5-yl) benzene-1,2-disulfonamide]",9.15,9.80,–,0.7813,3.125,3.125,1.563,1.563,1.00,–,–,–,–,–,–,–,–,–,9.85
NCC(CN)NS(=O)(=O)c1ccc(-c2cccc3[nH]nnc23)c(-c2nn[nH]n2)c1S(N)(=O)=O [Example 403],9.27,10.20,–,1.563,3.125,1.563,–,–,–,–,–,–,–,–,–,1.563,1.563,1.00,9.76
"NCCNS(=O)(=O)c1ccc(-c2ccnc(CN)c2)c(-c2nn[nH]n2)c1S(N)(=O)=O [Example 461, N1-(2-Aminoethyl)-4-(2-(aminomethyl)pyridin-4-yl)-3-(2H-tetrazol-5-yl)benzene-1,2-disulfonamide]",7.30,7.38,8.32,1.563,6.25,3.125,–,–,–,–,–,–,–,–,–,12.5,3.125,4.00,–
"Nc1nc2c(-c3ccc(S(=O)(=O)N[C@H]4CN[C@@H](CO)C4)c(S(N)(=O)=O)c3-c3nnn[nH]3)cccc2s1 [Example 81, 4-(2-amino-1,3-benzothiazol-4-yl)-N1-[(3R,5R)-5-(hydroxymethyl)pyrrolidin-3-yl]-3-(1H-tetrazol-5-yl)benzene-1,2-disulfonamide]",9.72,10.54,–,–,–,–,0.7813,1.563,0.50,1.563,1.563,1.563,–,–,–,–,–,–,9.87
"CNCCCN(C)S(=O)(=O)c1ccc(-c2cccc3sc(N)nc23)c(-c2nnn[nH]2)c1S(N)(=O)=O.O=C(O)C(F)(F)F [Example 93, 3-(4-(2-aminobenzo[d]thiazol-4-yl)-N-methyl-2-sulfamoyl-3-(1H-tetrazol-5-yl)phenylsulfonamido)-N-methylpropan-1-aminium 2,2,2-trifluoroacetate]",8.28,8.20,7.91,–,–,–,3.125,3.125,1.00,6.25,12.5,3.125,–,–,–,–,–,–,–
"NC[C@@H](N)CNS(=O)(=O)c1ccc(-c2cccc3[nH]c(N)nc23)c(-c2nn[nH]n2)c1S(N)(=O)=O [Example 375, (R)-4-(2-amino-1H-benzo[d]imidazol-4-yl)-N1-(2,3-diaminopropyl)-3-(2H-tetrazol-5-yl)benzene-1,2-disulfonamide]",9.22,10.23,–,0.3906,1.563,1.563,1.563,1.563,1.00,–,–,–,–,–,–,–,–,–,9.63

# Reference: patent US10221163B2 (priority 2015, dated 2019)
